The text below walks through data of ChEMBL document CHEMBL4406832, “Discovery of novel series of 2-substituted benzo[d]oxazol-5-amine derivatives as multi-target directed ligands for the treatment of Alzheimer's disease” (Eur J Med Chem, 2019).

The source made the active and inactive calls. No cut-off for these calls is given here.

Data set [1] deals with Cholinesterase (Equus caballus, UniProt P81908). As to the kind of experiment: Inhibition of equine serum BuChE using butyrylthiocholine iodide as substrate preincubated for 30 mins followed by substrate addition and measured for 1 min by DTNB reagent-based spectrophotometric analysis.
Sequence of Cholinesterase (P81908 whole entry): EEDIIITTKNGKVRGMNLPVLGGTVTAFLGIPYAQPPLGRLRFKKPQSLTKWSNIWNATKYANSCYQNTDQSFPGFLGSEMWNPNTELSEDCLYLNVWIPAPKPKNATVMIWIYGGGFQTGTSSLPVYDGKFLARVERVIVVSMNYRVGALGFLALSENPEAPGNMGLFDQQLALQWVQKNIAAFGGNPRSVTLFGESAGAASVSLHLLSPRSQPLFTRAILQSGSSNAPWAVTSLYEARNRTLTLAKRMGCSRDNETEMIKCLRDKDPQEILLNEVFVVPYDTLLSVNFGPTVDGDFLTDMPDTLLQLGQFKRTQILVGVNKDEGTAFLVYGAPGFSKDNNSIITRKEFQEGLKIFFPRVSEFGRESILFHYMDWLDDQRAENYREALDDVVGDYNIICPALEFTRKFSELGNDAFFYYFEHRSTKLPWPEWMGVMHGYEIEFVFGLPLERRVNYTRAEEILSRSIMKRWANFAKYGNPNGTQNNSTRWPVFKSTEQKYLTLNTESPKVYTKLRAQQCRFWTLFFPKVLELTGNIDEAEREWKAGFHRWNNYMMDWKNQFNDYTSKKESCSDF
The target of data set [2] is Acetylcholinesterase (Electrophorus electricus, UniProt O42275). The experiment in a line: Inhibition of electric eel AChE using acetylthiocholine iodide as substrate preincubated with enzyme for 30 mins followed by substrate addition and measured for 1 min by DTNB reagent-based spectrophotometric analysis.
Sequence of Acetylcholinesterase (O42275 whole entry): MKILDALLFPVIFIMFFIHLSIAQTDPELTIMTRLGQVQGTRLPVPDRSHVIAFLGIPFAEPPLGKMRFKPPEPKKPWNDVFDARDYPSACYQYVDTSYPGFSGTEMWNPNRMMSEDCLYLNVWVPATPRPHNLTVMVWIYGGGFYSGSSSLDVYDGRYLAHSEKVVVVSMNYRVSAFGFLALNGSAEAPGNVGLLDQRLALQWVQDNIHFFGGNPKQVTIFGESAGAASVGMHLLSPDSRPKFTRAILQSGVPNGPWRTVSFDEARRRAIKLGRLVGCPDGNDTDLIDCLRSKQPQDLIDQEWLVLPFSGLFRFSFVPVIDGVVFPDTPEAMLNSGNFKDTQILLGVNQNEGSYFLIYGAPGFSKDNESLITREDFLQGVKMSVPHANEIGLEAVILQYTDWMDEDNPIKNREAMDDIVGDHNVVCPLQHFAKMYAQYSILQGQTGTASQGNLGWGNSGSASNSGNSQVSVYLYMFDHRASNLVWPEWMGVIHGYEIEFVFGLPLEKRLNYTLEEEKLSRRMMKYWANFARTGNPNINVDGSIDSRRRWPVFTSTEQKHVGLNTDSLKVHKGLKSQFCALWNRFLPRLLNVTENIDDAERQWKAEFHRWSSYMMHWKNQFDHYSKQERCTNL
Data set [3] in a line: Selectivity index, ratio of IC50 for equine serum BuChE to IC50 for electric eel AChE.
Data set [4] can be described thus: Permeability of the compound in pH 7.4 PBS buffer incubated for 18 hrs by PAMPA-BBB assay.
Data set [5] relates to Rattus norvegicus. The experiment in a line: Cognitive enhancing effect in scopolamine-induced Wistar rat model of amnesia assessed as increase in spontaneous alteration at 5 mg/kg pretreated for 7 days followed by scopolamine challenge and measured after 30 mins by Y-maze test. The format is functional, organism-based.
Data set [6] deals with Rattus norvegicus. As to the kind of experiment: Improvement in learning and spatial memory in icv infused amyloid beta (1 to 42)-induced Wistar rat model of Alzheimer's disease assessed as increase in number of platform crossing at 5 mg/kg, po administered daily for 7 days starting from 7 days post surgery and measured after 6 days by Morris water maze test. The format is functional, organism-based.

The test system of data set [7] is Rattus norvegicus. The experiment in a line: Improvement in learning and spatial memory in icv infused amyloid beta (1 to 42)-induced Wistar rat model of Alzheimer's disease assessed as increase in time spent in platform zone at 5 mg/kg, po administered daily for 7 days starting from 7 days post surgery and measured after 6 days by Morris water maze test. The format is functional, organism-based.

The subject of data set [8] is Rattus norvegicus. The experiment in a line: Improvement in learning and spatial memory in icv infused amyloid beta (1 to 42)-induced Wistar rat model of Alzheimer's disease assessed as reduction in degeneration of neuron in hippocampal region at 5 mg/kg, po administered daily for 7 days starting from 7 days post surgery and measured after 6 days by H and E staining-based microscopic analysis. It counts as functional, organism-based.

For data set [9], the system named is Rattus norvegicus. As to the kind of experiment: Improvement in learning and spatial memory in icv infused amyloid beta (1 to 42)-induced Wistar rat model of Alzheimer's disease assessed as reduction in escape latency at 5 mg/kg, po administered daily for 7 days starting from 7 days post surgery and measured daily for 5 days by Morris water maze test. It counts as functional, organism-based.

In data set [10] the test system is Rattus norvegicus. As to the kind of experiment: Improvement in learning and spatial memory in icv infused amyloid beta (1 to 42)-induced Wistar rat model of Alzheimer's disease assessed as reduction in disordered neuron in hippocampal region at 5 mg/kg, po administered daily for 7 days starting from 7 days post surgery and measured after 6 days by H and E staining-based microscopic analysis. The format is functional, organism-based.

The subject of data set [11] is SH-SY5Y. As to the kind of experiment: Neuroprotective activity against amyloid beta (1 to 42)-induced cytotoxicity in human SH-SY5Y cells assessed as increase in cell viability at 10 to 20 uM measured after 72 hrs by MTT assay. The format is functional, cell-based.

Broadly, the IC50 is the midpoint of a concentration-inhibition curve. Higher therefore signals weaker potency. What is called Papp is the rate of passage across a membrane or cell layer, normalised by area and donor concentration. The low end stands for poor permeation, the high end for ready permeation. For the compound `Nc1ccc2oc(N3CCN(Cc4ccc(Cl)cc4)CC3)nc2c1`, the IC50 stood at 3850 nM in data set [1] and 747 nM in [2]. Further, the Ratio IC50 in data set [3] came out at 5.1. In data set [4], the Papp at 18 h was 10.7 ×10⁻⁶ cm/s.
The corresponding values for `Nc1ccc2oc(NC3CCN(Cc4ccccc4)CC3)nc2c1` are 2270 nM, 559 nM, 4 and 9.47 ×10⁻⁶ cm/s.
The corresponding values for `Nc1ccc2oc(N3CCN(c4ccccn4)CC3)nc2c1` are 15100 nM, 3310 nM, 4.5 and 9.44 ×10⁻⁶ cm/s.
Taken in the same sequence, the figures for `Cc1ccc(N2CCN(c3nc4cc(N)ccc4o3)CC2)cc1` were 9010 nM, 4180 nM, 2.1 and 10.4 ×10⁻⁶ cm/s.
As to `Nc1ccc2oc(N3CCOCC3)nc2c1`, the IC50 in [1] came out at 32300 nM; in [2], 7030 nM. Also, the Ratio IC50 in data set [3] came to 4.5. This compound came in with a Papp at 18 h in [4] of 7.44 ×10⁻⁶ cm/s.
Taken in the same sequence, the figures for `Nc1ccc2oc(N3CCN(C(=O)c4cccc(F)c4)CC3)nc2c1` were 5540 nM, 231 nM, 23.9 and 9.51 ×10⁻⁶ cm/s.
The corresponding values for `Nc1ccc2oc(N3CCN(c4ccccc4)CC3)nc2c1` are 16800 nM, 2090 nM, 8 and 10.3 ×10⁻⁶ cm/s.
As to `COc1cc2c(cc1OC)C(=O)C(Cc1cc[n+](Cc3ccccc3)cc1Br)C2` (stereo not drawn), 0.36 nM corresponded to half-maximal inhibition in [2] (IC50).
With `COc1ccccc1C(=O)N1CCN(c2nc3cc(N)ccc3o2)CC1`, the 50% inhibitory concentration (IC50) in data set [1] was 7380 nM; in data set [2], 927 nM. For the same compound, the Ratio IC50 in data set [3] amounted to 7.9. In addition, the Papp at 18 h in data set [4] was 9.21 ×10⁻⁶ cm/s.
The corresponding values for `Nc1ccc2oc(N3CCN(C(=O)c4ccc(F)cc4)CC3)nc2c1` are 817 nM, 73 nM, 11.1 and 9.67 ×10⁻⁶ cm/s.
Taken in the same sequence, the figures for `Nc1ccc2oc(N3CCN(c4ccc(Br)cc4)CC3)nc2c1` were 8760 nM, 1050 nM, 8.3 and 10.5 ×10⁻⁶ cm/s.
The corresponding values for `Nc1ccc2oc(N3CCN(Cc4ccccc4)CC3)nc2c1` are 6760 nM, 921 nM, 7.3 and 10.2 ×10⁻⁶ cm/s.
For `CC(C)c1ccc(CN2CCN(c3nc4cc(N)ccc4o3)CC2)cc1`, the IC50 amounted to 11300 nM in data set [1] and 943 nM in data set [2]. Besides, the Ratio IC50 in data set [3] was 11.9. Besides, the Papp at 18 h in data set [4] worked out at 11.6 ×10⁻⁶ cm/s.
The corresponding values for `Nc1ccc2oc(N3CCN(C(=O)c4cccc(Br)c4)CC3)nc2c1` are 2680 nM, 163 nM, 16.4 and 10.5 ×10⁻⁶ cm/s.
As for `Nc1ccc2oc(N3CCN(CCc4ccccc4)CC3)nc2c1`, the IC50 in [1] amounted to 957 nM; in data set [2], 393 nM. Moreover, the Ratio IC50 in [3] was 2.4. The Papp at 18 h in [4] was determined as 13.4 ×10⁻⁶ cm/s.
The corresponding values for `Cc1ccc(CN2CCN(c3nc4cc(N)ccc4o3)CC2)cc1` are 5190 nM, 807 nM, 6.4 and 10.6 ×10⁻⁶ cm/s.
Regarding `Nc1ccc2oc(N3CCN(C(=O)c4cccc(Cl)c4)CC3)nc2c1`, the IC50 in data set [1] came to 4560 nM; in [2] it was 241 nM. The Ratio IC50 in data set [3] amounted to 18.9. The Papp at 18 h in [4] is 10.4 ×10⁻⁶ cm/s.
As for `Nc1ccc2oc(N3CCN(C(=O)c4ccc5c(c4)OCO5)CC3)nc2c1`, the IC50 worked out at 1520 nM in data set [1] and 616 nM in data set [2]. Moreover, the Ratio IC50 in data set [3] was determined as 2.4. Also, the Papp at 18 h in [4] amounted to 9.64 ×10⁻⁶ cm/s.
Taken in the same sequence, the figures for `Nc1ccc2oc(N3CCN(c4ccc(F)cc4)CC3)nc2c1` were 6480 nM, 1440 nM, 4.4 and 10.7 ×10⁻⁶ cm/s.
The corresponding values for `Nc1ccc2oc(N3CCN(C(=O)c4ccc(Cl)cc4)CC3)nc2c1` are 3320 nM, 109 nM, 30.4 and 10.4 ×10⁻⁶ cm/s.
The corresponding values for `Nc1ccc2oc(N3CCN(C(=O)c4ccccc4Br)CC3)nc2c1` are 6190 nM, 445 nM, 13.9 and 10.6 ×10⁻⁶ cm/s.
As for `Nc1ccc2oc(N3CCN(c4ccc(Cl)cc4)CC3)nc2c1`, the IC50 in data set [1] was determined as 11100 nM; in data set [2], 1960 nM. Further, the Ratio IC50 in data set [3] worked out at 5.6. In data set [4], the Papp at 18 h worked out at 10.6 ×10⁻⁶ cm/s.
The corresponding values for `Nc1ccc2oc(N3CCN(Cc4ccc(Br)cc4)CC3)nc2c1` are 2970 nM, 379 nM, 7.8 and 11.3 ×10⁻⁶ cm/s.
The corresponding values for `COc1ccc(Cl)cc1C(=O)N1CCN(c2nc3cc(N)ccc3o2)CC1` are 1360 nM, 321 nM, 4.2 and 8.82 ×10⁻⁶ cm/s.
For the compound `Nc1ccc2oc(N3CCN(C(=O)c4ccccc4)CC3)nc2c1`, the values for the IC50 in data set [1] and in [2] were 6050 nM and 801 nM, respectively.
Consider `COc1ccc(CN2CCN(c3nc4cc(N)ccc4o3)CC2)cc1`, for which the IC50 was determined as 6330 nM in data set [1] and 748 nM in data set [2]. Besides, the Ratio IC50 in [3] worked out at 8.4. In [4], this compound displayed a Papp at 18 h of 9.49 ×10⁻⁶ cm/s.
For the compound `C#CCN(Cc1ccc2cccc(O)c2n1)C(C#N)CCC1CCN(Cc2ccccc2)CC1` (stereo not drawn), the IC50 in [2] was determined as 29 nM.
In the case of `COc1ccc(C(=O)N2CCN(c3nc4cc(N)ccc4o3)CC2)cc1`, the IC50 in data set [1] turned out to be 7330 nM; in data set [2], 275 nM. Besides, in data set [3], the Ratio IC50 was 26.6. This compound also had a Papp at 18 h in [4] of 9.71 ×10⁻⁶ cm/s.
The corresponding values for `Nc1ccc2oc(N3CCN(C(=O)c4ccccc4Cl)CC3)nc2c1` are 4860 nM, 559 nM, 8.6 and 10.3 ×10⁻⁶ cm/s.
Take `Nc1ccc2oc(N3CCCCC3)nc2c1`: the IC50 was 24200 nM in data set [1] and 5680 nM in data set [2].
Turning to `COc1cc2c(cc1OC)C(=O)C(CC1CCN(Cc3ccccc3)CC1)C2` (stereo not drawn), the result in data set [5], in data set [6], in data set [7], in data set [8], in [9] and in data set [10] was Active. In addition, in data set [11], the result was Active.
In the case of `Nc1ccc2oc(N3CCN(Cc4ccc(F)cc4)CC3)nc2c1`, the IC50 in data set [1] came to 3110 nM; in data set [2], 525 nM. In addition, in [3], the Ratio IC50 is 5.9. The Papp at 18 h in [4] amounted to 10.5 ×10⁻⁶ cm/s.
The corresponding values for `COc1ccc(N2CCN(c3nc4cc(N)ccc4o3)CC2)cc1` are 13000 nM, 2100 nM, 6.1 and 10.5 ×10⁻⁶ cm/s.
`COc1cccc(C(=O)N2CCN(c3nc4cc(N)ccc4o3)CC2)c1`: the values for the IC50 in data set [1] and in data set [2] were 11700 nM and 550 nM, respectively. Also, the Ratio IC50 in data set [3] came to 21.3. In data set [4], this compound yielded a Papp at 18 h of 9.54 ×10⁻⁶ cm/s.
As to `Nc1ccc2oc(N3CCN(C(=O)c4ccccc4F)CC3)nc2c1`, the IC50 in [1] is 8390 nM; in [2], 337 nM. In [3], the Ratio IC50 stood at 24.9. In addition, the Papp at 18 h in [4] is 9.55 ×10⁻⁶ cm/s.
